# Measured values reported in US8617906B2, “Identification and screening of triptolide target molecules” (priority 2004, dated 2013).
# Key:
# [1] = target: T1, Hypothetical Protein—GI 7705346 (PG790) (Homo sapiens, UniProt Q9Y4R8); assay: Isolation of proteins binding 3H-triptolide in Jurkat cells; conditions: 3H-labeled Jurkat cell extract
# T1 construct: Jurkat cells from expanding cultures were labeled with; endogenous in cells; host or cells: Jurkat
# Description: (§1) Triptolide target molecules were isolated and identified by purification and identification of molecules that bind ^3H-triptolide. Jurkat cells from expanding cultures were labeled with ^3H-triptolide by cultivation at 37° C. with 5% CO2 for a period of time between a few hours and overnight (usually 6-7 hours) and harvested by centrifugation and washing in ice-cold phosphate buffered saline. The cells (usually 1-3×10^6/ml) were generally labeled with ^3H-triptolide to a final concentration of 35 nM (100 μCi/200 ml of medium). Collected cell pellets were pooled, and the cells were either extracted and subjected to separation and purification at that time, or were frozen and stored at −20° C. as pellets for extraction and investigation at a later time.
# (§2) The cells were extracted with M-per buffer (Pierce) and homogenized in presence of a protease inhibitor cocktail, sometimes including other reagents such as deoxyribonuclease (DNase). […] When the extracts components were found not to be sufficiently purified, enriched or reduced in number, 2D gel electrophoresis was employed, followed by fluorography for ^3H-associated radioactivity detection, and MALDI/MS of the corresponding peptides (after proteolysis) and peptide fingerprinting. […]
# [2] = test system: T2, Hypothetical Protein (GI 11277141), superfamily HSP 90 (PG788) (Homo sapiens); assay: as above; conditions: 3H-labeled Jurkat cell extract
# T2 construct: endogenous in cells; host or cells: Jurkat
# Description: as §1, §2
# [3] = target: T3, Human Serine/Threonine Protein Phosphatase 2A 130 KDa regulatory subunit, PP2A (PG789) (Homo sapiens, UniProt Q06190); assay: as above; conditions: 3H-labeled Jurkat cell extract
# T3 construct: endogenous in cells; host or cells: Jurkat
# Description: as §1, §2
# IL-2 = conditions: cited from earlier work
# microglia = conditions: cited from earlier work
# PC12 cells = conditions: cited from earlier work
# [4] = test system: Hypothetical Protein (GI 14758649), similar to heat shock protein (90 kDa) beta (PG787); assay: Isolation of proteins binding 3H-triptolide in Jurkat cells; set-up: species or system human; conditions: 3H-labeled Jurkat cell extract
# Description: as §1, §2
# [5] = target: T4, hypothetical protein FLJ20297 (PG777) (Homo sapiens, UniProt Q9NXE4); assay: as above; conditions: 3H-labeled Jurkat cell extract
# T4 construct: endogenous in cells; host or cells: Jurkat
# Description: as §1, §2
# Vimentin (PG778) = target: T5, Vimentin (PG778) (Homo sapiens, UniProt P08670); assay: as above; conditions: 3H-labeled Jurkat cell extract
# T5 construct: endogenous in cells; host or cells: Jurkat
# Description: as §1, §2
# T5 sequence (P08670 whole entry): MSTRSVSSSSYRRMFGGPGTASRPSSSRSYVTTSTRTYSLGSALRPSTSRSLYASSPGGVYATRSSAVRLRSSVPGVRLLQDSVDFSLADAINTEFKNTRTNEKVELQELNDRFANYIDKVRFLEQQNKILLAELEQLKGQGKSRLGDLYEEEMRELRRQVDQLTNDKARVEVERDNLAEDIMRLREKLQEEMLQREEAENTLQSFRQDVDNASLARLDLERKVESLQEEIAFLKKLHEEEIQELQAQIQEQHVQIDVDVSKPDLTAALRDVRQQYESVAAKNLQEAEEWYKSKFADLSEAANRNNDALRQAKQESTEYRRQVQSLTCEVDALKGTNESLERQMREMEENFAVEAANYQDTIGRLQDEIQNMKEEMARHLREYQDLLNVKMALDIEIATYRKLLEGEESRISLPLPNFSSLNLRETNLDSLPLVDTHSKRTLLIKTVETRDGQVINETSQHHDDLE
# T3 sequence (Q06190 whole entry): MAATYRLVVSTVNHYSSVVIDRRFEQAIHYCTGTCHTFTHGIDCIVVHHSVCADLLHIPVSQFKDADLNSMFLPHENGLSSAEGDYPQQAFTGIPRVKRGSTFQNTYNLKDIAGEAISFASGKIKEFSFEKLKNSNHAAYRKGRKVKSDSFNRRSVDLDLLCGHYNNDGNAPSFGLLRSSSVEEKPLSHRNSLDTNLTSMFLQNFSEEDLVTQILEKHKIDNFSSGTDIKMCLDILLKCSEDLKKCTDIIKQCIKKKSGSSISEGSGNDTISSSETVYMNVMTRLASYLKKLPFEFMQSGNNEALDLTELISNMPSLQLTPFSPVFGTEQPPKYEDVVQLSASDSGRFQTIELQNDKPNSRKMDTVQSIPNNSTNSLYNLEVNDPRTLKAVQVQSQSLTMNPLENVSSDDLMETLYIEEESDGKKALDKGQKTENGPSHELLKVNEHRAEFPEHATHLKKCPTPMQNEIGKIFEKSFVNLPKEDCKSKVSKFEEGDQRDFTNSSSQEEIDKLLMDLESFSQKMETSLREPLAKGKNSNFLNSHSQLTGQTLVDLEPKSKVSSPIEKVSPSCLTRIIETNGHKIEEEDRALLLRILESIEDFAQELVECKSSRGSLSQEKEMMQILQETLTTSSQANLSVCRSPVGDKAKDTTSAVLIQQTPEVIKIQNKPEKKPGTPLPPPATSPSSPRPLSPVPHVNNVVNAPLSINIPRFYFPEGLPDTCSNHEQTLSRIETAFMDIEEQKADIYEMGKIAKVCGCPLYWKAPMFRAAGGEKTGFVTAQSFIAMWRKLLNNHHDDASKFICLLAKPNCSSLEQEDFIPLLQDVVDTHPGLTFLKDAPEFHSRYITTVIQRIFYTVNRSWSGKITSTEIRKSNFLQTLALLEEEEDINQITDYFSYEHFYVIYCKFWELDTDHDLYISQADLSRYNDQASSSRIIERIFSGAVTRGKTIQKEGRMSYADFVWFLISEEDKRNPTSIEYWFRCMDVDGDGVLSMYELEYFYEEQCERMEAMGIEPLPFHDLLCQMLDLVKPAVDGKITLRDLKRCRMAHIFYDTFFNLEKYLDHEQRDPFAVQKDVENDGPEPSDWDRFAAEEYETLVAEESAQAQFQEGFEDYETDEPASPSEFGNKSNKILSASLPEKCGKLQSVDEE
# T1 sequence (Q9Y4R8 whole entry): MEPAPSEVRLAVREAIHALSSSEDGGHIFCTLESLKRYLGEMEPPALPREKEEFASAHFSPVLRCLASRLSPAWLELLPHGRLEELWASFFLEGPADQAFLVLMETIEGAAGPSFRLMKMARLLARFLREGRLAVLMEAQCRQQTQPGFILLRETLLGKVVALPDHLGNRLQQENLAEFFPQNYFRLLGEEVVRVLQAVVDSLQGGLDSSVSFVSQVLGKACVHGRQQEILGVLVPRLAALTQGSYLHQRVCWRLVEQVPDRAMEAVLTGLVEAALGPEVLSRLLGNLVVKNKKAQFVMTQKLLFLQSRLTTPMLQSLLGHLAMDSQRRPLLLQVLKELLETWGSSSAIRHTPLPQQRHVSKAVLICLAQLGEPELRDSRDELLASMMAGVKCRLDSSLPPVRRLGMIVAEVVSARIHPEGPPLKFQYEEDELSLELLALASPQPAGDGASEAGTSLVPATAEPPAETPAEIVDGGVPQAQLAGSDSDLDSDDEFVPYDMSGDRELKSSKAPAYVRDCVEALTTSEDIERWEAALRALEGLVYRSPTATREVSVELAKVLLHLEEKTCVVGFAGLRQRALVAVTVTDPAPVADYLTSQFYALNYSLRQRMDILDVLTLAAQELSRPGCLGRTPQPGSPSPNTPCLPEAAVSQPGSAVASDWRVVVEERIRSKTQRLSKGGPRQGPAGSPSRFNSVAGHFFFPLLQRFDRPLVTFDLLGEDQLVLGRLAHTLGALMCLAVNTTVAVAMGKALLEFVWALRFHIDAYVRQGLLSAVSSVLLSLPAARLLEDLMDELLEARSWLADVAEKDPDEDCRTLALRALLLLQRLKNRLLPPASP
# T4 sequence (Q9NXE4 whole entry): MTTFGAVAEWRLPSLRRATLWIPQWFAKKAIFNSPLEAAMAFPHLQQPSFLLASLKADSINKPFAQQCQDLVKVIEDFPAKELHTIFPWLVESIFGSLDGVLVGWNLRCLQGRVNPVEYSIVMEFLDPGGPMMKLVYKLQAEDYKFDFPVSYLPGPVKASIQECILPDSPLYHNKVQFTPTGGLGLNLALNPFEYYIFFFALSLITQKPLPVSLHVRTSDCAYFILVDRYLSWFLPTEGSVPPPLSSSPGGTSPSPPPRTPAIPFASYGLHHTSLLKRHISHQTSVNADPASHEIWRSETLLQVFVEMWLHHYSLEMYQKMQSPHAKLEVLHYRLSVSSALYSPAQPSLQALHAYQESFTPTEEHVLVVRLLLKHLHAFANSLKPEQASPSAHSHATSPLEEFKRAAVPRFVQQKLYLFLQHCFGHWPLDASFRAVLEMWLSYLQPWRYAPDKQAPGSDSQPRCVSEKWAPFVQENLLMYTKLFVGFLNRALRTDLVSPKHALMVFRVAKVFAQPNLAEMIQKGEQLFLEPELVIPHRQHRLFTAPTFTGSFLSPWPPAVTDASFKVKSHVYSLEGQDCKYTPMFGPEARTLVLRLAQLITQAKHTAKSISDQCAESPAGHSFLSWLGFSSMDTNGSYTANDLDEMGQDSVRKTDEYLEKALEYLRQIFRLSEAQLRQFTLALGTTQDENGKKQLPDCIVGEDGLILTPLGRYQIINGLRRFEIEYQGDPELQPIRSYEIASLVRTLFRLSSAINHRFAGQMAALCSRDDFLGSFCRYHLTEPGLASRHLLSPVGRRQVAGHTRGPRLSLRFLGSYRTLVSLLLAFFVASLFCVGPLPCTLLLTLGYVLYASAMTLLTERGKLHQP
# T2 sequence (P08238 2-724 limits assumed): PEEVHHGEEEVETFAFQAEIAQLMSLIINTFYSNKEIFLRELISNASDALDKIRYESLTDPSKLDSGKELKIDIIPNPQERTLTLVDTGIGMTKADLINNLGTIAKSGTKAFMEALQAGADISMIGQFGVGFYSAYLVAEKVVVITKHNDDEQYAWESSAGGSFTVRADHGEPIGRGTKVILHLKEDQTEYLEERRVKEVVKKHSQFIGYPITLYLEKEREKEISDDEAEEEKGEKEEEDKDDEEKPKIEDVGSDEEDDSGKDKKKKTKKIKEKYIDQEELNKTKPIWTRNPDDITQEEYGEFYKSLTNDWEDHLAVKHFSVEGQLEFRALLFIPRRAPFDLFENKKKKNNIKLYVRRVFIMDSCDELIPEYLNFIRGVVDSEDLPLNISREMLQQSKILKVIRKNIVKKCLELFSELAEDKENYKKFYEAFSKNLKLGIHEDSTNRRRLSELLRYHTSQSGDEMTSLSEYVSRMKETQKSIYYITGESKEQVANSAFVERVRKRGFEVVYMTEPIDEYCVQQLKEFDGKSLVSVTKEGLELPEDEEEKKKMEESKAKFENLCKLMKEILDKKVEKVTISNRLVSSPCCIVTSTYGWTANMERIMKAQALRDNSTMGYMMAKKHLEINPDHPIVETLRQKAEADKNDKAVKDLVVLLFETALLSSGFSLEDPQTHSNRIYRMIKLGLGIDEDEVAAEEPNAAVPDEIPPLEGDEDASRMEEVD
smiles,measurement,setting,value
CC(C)[C@]12O[C@H]1[C@@H]1O[C@]13[C@]1(O[C@H]1C[C@H]1C4=C(CC[C@@]13C)C(=O)OC4)[C@@H]2O [triptolide],3H-associated protein identified as triptolide target: GI 7705346,[1],identified
same,3H-associated protein identified as triptolide target: GI 11277141,[2],identified
same,3H-associated protein identified as triptolide target: PP2A 130 KDa regulatory subunit,[3],identified
same,inhibition of IL-2,IL-2,inhibition of IL-2
same,"LPS-activated microglial activity (nitrite accumulation, TNF-α and IL-1β release)",microglia,powerful inhibitory influence
same,β-amyloid-induced apoptosis,PC12 cells,markedly inhibit β-amyloid-induced apoptosis
same,β-amyloid-induced increase of intracellular Ca2+ concentration,PC12 cells,inhibit the increase of intracellular Ca^2+ concentration induced by β-amyloid
same,3H-associated protein identified as triptolide target: GI 14758649,[4],identified
same,3H-associated protein identified as triptolide target: FLJ20297,[5],identification
same,3H-associated protein identified as triptolide target: Vimentin,Vimentin (PG778),identification
